Measurements taken from patent US8080251B2, “Antigenic peptides” (Centre for DNA Fingerprinting and Diagnostics, priority 2004, dated 2011).

What was measured:
[1] = test system: serum IgG antibodies (patient sera); test: ELISA of serum IgG antibody response of TB patients to rRv2608 protein / synthetic peptides; type: binding, human; details: for Reactivity with patient sera: TB patient sera, ELISA; for Mean (O.D. at 492 nm): humoral response, antigen 2 μg/ml
[2] = test system: peripheral blood mononuclear cells (PBMCs); test: Lymphocyte (T cell) proliferation assay, MTT readout; type: cell-based, human; details: comparison between patient categories / between peptides
[3] = Category I patients (TB diagnosed for the first time, n=22)
[4] = Category II patients (relapsed TB, n=21)
[5] = Category III patients (extrapulmonary TB, n=8)

NIGFGNRGDANIK (listed as Mycobacterium tuberculosis) [Peptide P1b, 13-residue overlapping peptide, component of peptide 1]
Reactivity with patient sera [1]: react equally well with patient sera
Mean (O.D. at 492 nm) [1, 3]: 0.469
Mean (O.D. at 492 nm) [1, 4]: 0.775
Mean (O.D. at 492 nm) [1, 5]: 0.520

DRNLGIGNTGNWK (listed as Mycobacterium tuberculosis) [Peptide P1e, 13-residue overlapping peptide, component of peptide 1]
Reactivity with patient sera [1]: react equally well with patient sera
Mean (O.D. at 492 nm) [1, 3]: 0.407
Mean (O.D. at 492 nm) [1, 4]: 0.711
Mean (O.D. at 492 nm) [1, 5]: 0.405

RPGLDELSFTLTGNPNRPDGGILTK (listed as Mycobacterium tuberculosis) [Peptide P2]
Reactivity with patient sera [1]: strongly react with patient sera
Mean (O.D. at 492 nm) [1, 3]: 0.480
Mean (O.D. at 492 nm) [1, 4]: 0.706
Mean (O.D. at 492 nm) [1, 5]: 0.441
T cell proliferative response [2]: comparatively higher T cell response
T cell proliferative response ([2]; listed as Peptide 2): higher response in fresh infection cases
T cell proliferative response ([2]; listed as peptide 2): fresh infection cases>relapsed TB>extrapulmonary TB cases

RGDANIGIGNIGK (listed as Mycobacterium tuberculosis) [Peptide P1c, 13-residue overlapping peptide, component of peptide 1]
Reactivity with patient sera [1]: react equally well with patient sera
Mean (O.D. at 492 nm) [1, 3]: 0.416
Mean (O.D. at 492 nm) [1, 4]: 0.810
Mean (O.D. at 492 nm) [1, 5]: 0.380

LSFTLTGNPNRPK (listed as Mycobacterium tuberculosis) [Peptide P2b, 13-residue overlapping peptide, part of peptide 2]
Reactivity with patient sera [1]: react equally well with patient sera
Mean (O.D. at 492 nm) [1, 3]: 0.450
Mean (O.D. at 492 nm) [1, 4]: 0.498
Mean (O.D. at 492 nm) [1, 5]: 0.422

GNPNRPDGGILTK (listed as Mycobacterium tuberculosis) [Peptide P2c, 13-residue overlapping peptide, part of peptide 2]
Reactivity with patient sera [1]: react equally well with patient sera
Mean (O.D. at 492 nm) [1, 3]: 0.491
Mean (O.D. at 492 nm) [1, 4]: 0.632
Mean (O.D. at 492 nm) [1, 5]: 0.410
T cell proliferative response [2]: comparatively higher T cell response

GIGNIGDRNLGIK (listed as Mycobacterium tuberculosis) [Peptide P1d, 13-residue overlapping peptide, component of peptide 1]
Reactivity with patient sera [1]: react equally well with patient sera
Mean (O.D. at 492 nm) [1, 3]: 0.482
Mean (O.D. at 492 nm) [1, 4]: 0.787
Mean (O.D. at 492 nm) [1, 5]: 0.527

RPGLDELSFTLTK (listed as Mycobacterium tuberculosis) [Peptide P2a, 13-residue overlapping peptide, part of peptide 2]
Reactivity with patient sera [1]: react equally well with patient sera
Mean (O.D. at 492 nm) [1, 3]: 0.473
Mean (O.D. at 492 nm) [1, 4]: 0.689
Mean (O.D. at 492 nm) [1, 5]: 0.392

DNIGNANIGFGNRGDANIGIGNIGDRNLGIGNTGNWK (listed as Mycobacterium tuberculosis) [Peptide P1]
Reactivity with patient sera [1]: strongly react with patient sera
Mean (O.D. at 492 nm) [1, 3]: 0.412
Mean (O.D. at 492 nm) [1, 4]: 0.675
Mean (O.D. at 492 nm) [1, 5]: 0.483

DNIGNANIGFGNK (listed as Mycobacterium tuberculosis) [Peptide P1a, 13-residue overlapping peptide, component of peptide 1]
Reactivity with patient sera [1]: react equally well with patient sera
Mean (O.D. at 492 nm) [1, 3]: 0.426
Mean (O.D. at 492 nm) [1, 4]: 0.770
Mean (O.D. at 492 nm) [1, 5]: 0.473

B1: rRv2608: 59.6 kDa recombinant M. tuberculosis PPE_MPTR protein Rv2608, expressed in E. coli BL21 as 6×His-tag fusion protein (protein)
chain: MNFAVLPPEVNSARIFAGAGLGPMLAAASAWDGLAEELHAAAGSFASVTTGLAGDAWHGPASLAMTRAASPYVGWLNTAAGQAAQAAGQARLAASAFEATLAATVSPAMVAANRTRLASLVAANLLGQNAPAIAAAEAEYEQIWAQDVAAMFGYHSAASAVATQLAPIQEGLQQQLQNVLAQLASGNLGSGNVGVGNIGNDNIGNANIGFGNRGDANIGIGNIGDRNLGIGNTGNWNIGIGITGNGQIGFGKPANPDVLVVGNGGPGVTALVMGGTDSLLPLPNIPLLEYAARFITPVHPGYTATFLETPSQFFPFTGLNSLTYDVSVAQGVTNLHTAIMAQLAAGNEVVVFGTSQSATIATFEMRYLQSLPAHLRPGLDELSFTLTGNPNRPDGGILTRFGFSIPQLGFTLSGATPADAYPTVDYAFQYDGVNDFPKYPLNVFATANAIAGILFLHSGLIALPPDLASGVVQPVSSPDVLTTYILLPSQDLPLLVPLRAIPLLGNPLADLIQPDLRVLVELGYDRTAHQDVPSPFGLFPDVDWAEVAADLQQGAVQGVNDALSGLGLPPPWQPALPRLF
modifications: left off: small tags and cut ends
Serum reactivity of extrapulmonary TB patients ([1]; Category III compared to Category I or II): less reactivity
Serum reactivity compared with Hsp10 ([1]; all patient categories, p>0.05): equal to or higher than the response to Hsp10
Serum reactivity of healthy controls ([1]; healthy controls (n=10) vs patients, p=0.0002): significantly less when compared to that of patients
